# Patent publication US5733918A, “Condensed-Indan derivatives and pharmaceutically acceptable salts thereof” (Taiho Pharmaceutical Co., Ltd., priority 1994, dated 1998)
# What was measured:
# [1] = tested on: P388 mouse leukemia cells; experiment: Cytotoxicity against P388 mouse leukemia cells (crystal violet staining); assay type: cell-based; details: 72 h, 3 days incubation, cell number reduced to 50% of control
# Method: P388 mouse leukemia cells were plated into 96-well plate at the density of 2×10^3 cells/well. The compounds of the invention were dissolved in purified water or dimethylsulfoxide and the solution was diluted with medium to various concentrations and added to respective wells. After the plate was incubated for 3 days, the cultures were fixed with glutaraldehyde and the number of survived cells were determined by crystal violet staining method.
# [2] = tested on: P388 mouse leukemia cells; experiment: Antineoplastic action: increase in life span of CDF1 mice bearing P388 mouse leukemia cells; assay type: in vivo; details: P388, ip
# Method: P388 mouse leukemia cells (1×10^6 cells/mouse) were injected intraperitoneally into CDF1 mouse. Each of the compound of the invention dissolved in 5% glucose or 5% dimethylsulfoxide at each of predetermined concentration was injected intraperitoneally on 1 and 5 days after injection. The antitumor activity thereof was evaluated as percentage of increase in life span (ILS %) compared to the mean survival of the untreated control group.
# [3] = i.p. on 1 and 5 days after tumor injection, CDF1 mouse, vs untreated control
Structure (SMILES),IC50 [1] [ng/mL],also measured
COc1ccc2c3c(c(NCCN(C)C)nc2c1)C(=O)c1ccccc1-3 [Compound 1-a],24,"ILS at 100 mg/kg/day [2, 3]: 68%"
"CN(C)CCNc1nc2cc(F)ccc2c2c1C(=O)c1ccccc1-2.Cl.Cl [Compound 2, 6-(((dimethylamino)ethyl)amino)-3-fluoro-7H-indeno[2,1-c]quinoline-7-on dihydrochloride]",4.8,"ILS at 67 mg/kg/day [2, 3]: 85%"
CN(C)CCNc1nc2cc(O)ccc2c2c1C(=O)c1ccccc1-2 [Compound 3-a],–,"ILS at 10 mg/kg/day ([2]; Mus musculus, read-out: Increase in life span (ILS %)): 94.4%"
CCN(CC)CCNc1nc2cc(O)ccc2c2c1C(=O)c1ccccc1-2 [Compound 7],0.65,"ILS at 44 mg/kg/day [2, 3]: 223%"
CN1CCN(c2nc3cc(O)ccc3c3c2C(=O)c2ccccc2-3)CC1 [Compound 9-a],7.4,"ILS at 150 mg/kg/day [2, 3]: 60%"
CN(C)CCNc1nc2cc(O)ccc2c2c1C(=O)c1cc(Cl)ccc1-2 [Compound 23-a],0.11,–
O=C1c2ccccc2-c2c1c(NCCN1CCCC1)nc1cc(O)ccc21 [Compound 26-a],0.42,"ILS at 30 mg/kg/day [2, 3]: 70.6%"
CN(C)CCNc1nc2ccccc2c2c1C(=O)c1ccccc1-2 [Compound 28-a],2,"ILS at 67 mg/kg/day [2, 3]: 180%"
CN(C)CCNc1nc2ccc(O)cc2c2c1C(=O)c1ccccc1-2 [Compound 31-a],6,"ILS at 30 mg/kg/day [2, 3]: 48.5%"
CN(C)CCNc1nc2cc(N)ccc2c2c1C(=O)c1ccccc1-2 [Compound 41-a],11,"ILS at 67 mg/kg/day [2, 3]: 306%"
CN(C)CCNc1nc2ccccc2c2c1C(=O)c1cc(O)ccc1-2 [Compound 47-a],1.3,"ILS at 44 mg/kg/day [2, 3]: 130%"
CN(C)CCNc1nc2ccccc2c2c1C(=O)c1ccc(O)cc1-2 [Compound 49-a],2,"ILS at 150 mg/kg/day [2, 3]: 66.7%"
CN(C)CCNc1nc2cc(O)ccc2c2c1C(=O)c1cc(O)ccc1-2 [Compound 50-a],1.1,"ILS at 20 mg/kg/day ([2]; dose 20 mg/kg/day, i.p. on 1 and 5 days after tumor injection, CDF1 mouse, vs untreated control): 45.2%"
O=C1c2ccccc2-c2c1c(NCCNCCO)nc1cc(O)ccc21 [Compound 55],0.95,–
"CNCCNc1nc2cc(O)ccc2c2c1C(=O)c1ccccc1-2.Cl.Cl.Cl [Compound 60, 6-(((methylamino)ethyl)amino)-3-hydroxy-7H-indeno[2,1-c]quinoline-7-on-trihydrochloride]",0.66,–
CN(C)CCOc1nc2cc(O)ccc2c2c1C(=O)c1ccccc1-2 [Compound 62],0.3,–
CN(C)CCOc1nc2ccccc2c2c1C(=O)c1cc3c(cc1-2)OCO3 [Compound 64-a],0.87,"ILS at 67 mg/kg/day [2, 3]: 153%"
CN(C)CCNc1nc2ccccc2c2c1C(=O)c1cc3c(cc1-2)OCO3 [Compound 66-a],1.2,"ILS at 44 mg/kg/day [2, 3]: 141%"
CN(C)CCNc1nc2cc3c(cc2c2c1C(=O)c1ccccc1-2)OCO3 [Compound 73-a],13,"ILS at 44 mg/kg/day [2, 3]: 129%"
"CN1CCN(c2nc3c(c4ccccc24)-c2ccccc2C3=O)CC1 [Compound 75, 6-(1-(4-methylpiperazinyl))-7H-indeno[2,1-c]isoquinoline-7-on]",450,–
CN(C)CCN(C)c1nc2c(c3ccccc13)-c1ccccc1C2=O [Compound 76],160,"ILS at 100 mg/kg/day [2, 3]: 75%"
